For 40 molecules, Kd results are on record in PubChem BioAssay AID1552 (Sanford-Burnham Center for Chemical Genomics, 2009).

In this assay the target is Ubiquitin-conjugating enzyme E2 N (Homo sapiens) (UniProt P61088). The experiment in a line: UBE2N binders by NMR, biophysical, purified protein (AID 1552). To be noted: NMR binding to purified UBE2N.

Each structure is given as a SMILES string. Activity calls are given as the source filed them. How the calls were made is not given here.

Ubiquitin-conjugating enzyme E2 N (Homo sapiens), sequence (P61088 whole entry, looked up): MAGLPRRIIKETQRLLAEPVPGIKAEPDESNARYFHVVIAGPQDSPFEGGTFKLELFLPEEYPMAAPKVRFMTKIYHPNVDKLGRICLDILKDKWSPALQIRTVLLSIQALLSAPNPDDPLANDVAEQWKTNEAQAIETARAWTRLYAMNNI

Regarding `C/C=C1\[C@H]2C=C(C)C[C@]1(N)c1ccc(=O)[nH]c1C2`, the Kd was > 4 mM (inactive).
`CCOCC(=O)NCc1n[nH]c(=O)c2ccccc12`: the Kd was > 4 mM (inactive).
As to `COc1cc(/C=C/C(=O)O)cc(OC)c1OC`, the Kd was > 4 mM (inactive).
Next, `Cc1cc(=O)n2[nH]cnc2n1`: > 4 mM (inactive).
With `Cc1noc(C)c1CSc1nc2ccccc2[nH]1`, the Kd is > 4 mM (inactive).
Next, `NC(=O)c1sc2ccccc2c1Cl`: > 4 mM (inactive); `CC(=O)N1CN(C(C)=O)CN(C(C)=O)C1`: > 4 mM (inactive); `O=C1c2cccc3cc(S(=O)(=O)O)cc(c23)C(=O)N1O`: > 4 mM (inactive).
Next, `Cc1ccc(-c2nn(C)c(=O)c3ccccc23)cc1CO`: > 4 mM (inactive).
Next, `CN(C(=O)c1cc2cccnc2n(C)c1=O)c1ccccc1`: > 4 mM (inactive); `Nc1cccc(-c2cnco2)c1`: > 4 mM (inactive).
On to `Cc1ncoc1C(=O)Nc1ncc([N+](=O)[O-])s1`, for which the Kd is > 4 mM (inactive).
Take `COc1ccc(C2(CN)CCOCC2)cc1OC`: the Kd is > 4 mM (inactive).
Consider `COc1c(O)cc2c(-c3ccccc3)cc(=O)oc2c1OC`, for which the Kd was > 4 mM (inactive).
Next, `CCC(C)C(=O)O[C@H]1[C@H](O)C2C(CN3CC(C)CCC3[C@@]2(C)O)C2C[C@]34O[C@]5(O)C(OC(=O)C(C)(O)CC)CC[C@@]3(C)C5C(OC(C)=O)[C@@H](OC(C)=O)C4[C@@]21O` (stereo not given in full): > 4 mM (inactive); `O=C1C2CCCCC2C(=O)N1c1ccc(O)cc1` (stereo not given): > 4 mM (inactive); `O=C1O[C@H](C(O)CO)C(O)=C1O` (stereo not given in full): > 4 mM (inactive).
Next, `COC(=O)[C@@H]1C(O)CC[C@H]2CN3CCc4c([nH]c5ccccc45)[C@@H]3C[C@@H]21` (stereo not given in full): > 4 mM (inactive); `COc1cc([C@@H]2c3cc4c(c(O)c3C[C@H]3COC(=O)[C@@H]32)OCO4)cc(OC)c1OC`: > 4 mM (inactive).
Next, `Cc1nnc(-n2cnc3ccccc32)c2ccccc12`: > 4 mM (inactive); `NC(=O)CSc1ncnc2ccccc12`: > 4 mM (inactive).
On to `CC(=O)c1ccc(-n2ccnc2)cc1`, for which the Kd is > 4 mM (inactive).
Next, `O=C(O)C1Cc2ccccc2N1` (stereo not given): > 4 mM (inactive); `CN(C(N)=O)C1(C)CCS(=O)(=O)C1` (stereo not given): > 4 mM (inactive).
Next, `CCOC(=O)C1CCC(=O)c2cccn21` (stereo not given): > 4 mM (inactive); `CC1(C)Oc2ccc(N)cc2O1`: > 4 mM (inactive).
For `COc1cccc(-c2csc(NC(C)=O)n2)c1`, the Kd is > 4 mM (inactive).
Consider `c1ccc(-c2nc3ccccc3nc2-c2ccccn2)nc1`, for which the Kd was > 4 mM (inactive).
Next, `C=C1C2CC[C@@]3(C)[C@H](c4ccoc4)OC(=O)C[C@]13O[C@H]1CC(O)C(C)(C)C(CC(=O)OC)[C@@]21C` (stereo not given in full): > 4 mM (inactive); `O=C(Cn1cnc2ccccc2c1=O)N1CCOCC1`: > 4 mM (inactive).
With `O=c1ccn(Cc2ccccc2)c(=O)n1Cc1ccccc1`, the Kd is > 4 mM (inactive).
Next, `NCc1csc(-c2ccccc2)n1`: > 4 mM (inactive); `CNS(=O)(=O)c1ccc2[nH]c(=O)[nH]c2c1`: > 4 mM (inactive).
Next, `O=C1C=CC2=C3c4cc(O)c(O)cc4CC3(O)COC2=C1O` (stereo not given): > 4 mM (inactive); `OCc1ccc2c(c1)CCO2`: > 4 mM (inactive).
Next, `O=C(O)c1ccc2nccnc2c1`: > 4 mM (inactive); `Cc1onc(-c2ccccc2)c1CN`: > 4 mM (inactive).
In the case of `Cc1cc(NC(=O)Cc2c(F)cccc2Cl)no1`, the Kd was > 4 mM (inactive).
`O=C(C1CCCCC1)N1CCN(c2ccccc2F)CC1`: the Kd is > 4 mM (inactive).
In the case of `OC12CC3CC(C1)C1(NCCS1)C(C3)C2` (stereo not given), the Kd is > 4 mM (inactive).
